Test results reported in article PMC4306533, “Distinct Features of Cap Binding by eIF4E1b Proteins” (Journal of Molecular Biology, 2015).

Key:
[1] = system: lung, breast cancer and malignant mesothelioma cells; parameters: method as in PMID 23289910, PMID 24711125; conditions: with gemcitabine or pemetrexed; cited from earlier work
in vitro translation = system: in vitro translation; parameters: method as in PMID 10387101; conditions: Cai et al.; read-out: IC50 (inhibitory potency); cited from earlier work
eIF4E1a [2] = biological target: eIF4E1a; parameters: method as in PMID 19351181; conditions: Ghosh et al.; cited from earlier work
eIF4E1a [3] = system: eIF4E1a; parameters: method as in PMID 15317978; conditions: cited from earlier work
[4] = system: rabbit reticulocyte lysate system (RRL); conditions: cited from earlier work
XeIF4E1a = biological target: T1, XeIF4E1a (Xenopus laevis, UniProt P48597); test: time-synchronized fluorescence titration of cap analogue binding; conditions: equilibrium association constant
T1 construct: made in house; host or cells: E. coli Rosetta2(DE3)
Text: (§1) The time-synchronized fluorescence titration method, widely used to determine the affinity constants of cap–eIF4E complexes [[20,22–26]], measures the quenching of the intrinsic fluorescence of tryptophan residues due to cap binding (Fig. S2). Knowledge of the equilibrium association constant Kas enables the calculation of the free-energy changes involved in the interaction between eIF4E and ligand, according to the standard equation ΔG° = − RTlnKas.
(§2) For human eIF4E1a and eIF4E1b and also for Xenopus eIF4E1a and its mutated forms, measurements were carried out using 0.1 μM protein in 50 mM Hepes/KOH (pH 7.2), 134.5 mM KCl, 0.5 mM EDTA and 1 mM DTT. For Xenopus eIF4E1b(ΔN27), the concentration was 0.2 μM and glycerol was added to the buffer to 10% (v/v) final concentration. […] Fluorescence of measured samples was excited at 280 nm (2.5 nm bandwidth) and detected at 337 nm or 330 nm (4 nm bandwidth), thus reducing the signal originated from the free cap analogues. Measurements were carried out on a LS-55 spectrofluorometer (Perkin Elmer Co.) using freshly prepared proteins, and the fluorescence intensities were corrected for sample dilution and the inner filter effect.
(§3) Equilibrium association constants (Kas) were determined by fitting the theoretical dependence of fluorescence intensity on the total concentration of the cap analogue to the experimental data points, according to the equation described previously (see Ref. [22] and Fig. S2c).
(§4) The final Kas was calculated as a weighted average of 2–6 independent titrations with the weights taken as the reciprocal of the numerical standard deviation squared. Numerical, nonlinear least-squares regression analysis was performed using Origin 6.0 (Microcal Software Inc.). Obtained association constants were used to determine the Gibbs free energy according to the standard equation ΔG° = − RTlnKas.

heIF4E1b = biological target: T2, heIF4E1b (Homo sapiens, UniProt A6NMX2); test: as above; conditions: equilibrium association constant; buffer without glycerol
T2 construct: made in house; host or cells: E. coli Rosetta2(DE3)
T2 sequence (A6NMX2 1-242): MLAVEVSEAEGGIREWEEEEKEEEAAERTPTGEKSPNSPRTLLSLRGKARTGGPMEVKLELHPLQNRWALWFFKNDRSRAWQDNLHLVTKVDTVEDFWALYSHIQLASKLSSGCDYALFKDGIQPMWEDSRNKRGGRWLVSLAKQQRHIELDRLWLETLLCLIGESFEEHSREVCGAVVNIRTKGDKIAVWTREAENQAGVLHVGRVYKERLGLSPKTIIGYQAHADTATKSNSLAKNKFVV
Text: as §1, §2, §3, §4

T1 sequence (P48597 whole entry): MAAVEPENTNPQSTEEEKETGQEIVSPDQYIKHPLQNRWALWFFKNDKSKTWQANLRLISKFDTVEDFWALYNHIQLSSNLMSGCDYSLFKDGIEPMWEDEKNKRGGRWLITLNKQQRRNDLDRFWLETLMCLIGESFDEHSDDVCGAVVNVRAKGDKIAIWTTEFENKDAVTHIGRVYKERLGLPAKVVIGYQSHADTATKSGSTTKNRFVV

| SMILES | IC50 (in vitro translation) [µM] | Kd (eIF4E1a [2]) [µM] | cap-binding affinity to eIF4E1a versus methylated counterpart (eIF4E1a [3]) | inhibitory potency and translational efficiency compared with m^7GpppG [4] | also measured |
| --- | --- | --- | --- | --- | --- |
| Nc1nc2c(c(=O)[nH]1)[n+](Cc1ccccc1)cn2[C@@H]1O[C@H](COP(=O)(O)NCCc2c[nH]c3ccccc23)[C@@H](O)[C@H]1O [4Ei-1] | – | – | – | – | effect on malignant phenotypes and chemosensitization [1]: suppresses malignant phenotypes and chemosensitizes cells |
| Nc1nc2c(c(=O)[nH]1)[n+](Cc1ccccc1)cn2[C@@H]1O[C@H](COP(=O)([O-])O)[C@@H](O)[C@H]1O [bn^7GMP] | 113 | 0.8 | – | – | fold higher binding to eIF4E1a than m^7GMP (eIF4E1a [2]): 10 fold |
| Nc1nc2c(ncn2[C@@H]2O[C@H](COP(=O)(O)OP(=O)([O-])OP(=O)(O)OC[C@H]3O[C@@H]([n+]4cn(Cc5ccccc5)c5c(=O)[nH]c(N)nc54)[C@H](O)[C@@H]3O)[C@@H](O)[C@H]2O)c(=O)[nH]1 [bn^7GpppG] | – | – | no increase in cap-binding affinity to eIF4E1a was observed | higher inhibitory potency and translational efficiency | – |
| Nc1nc2c(ncn2[C@@H]2O[C@H](COP(=O)(O)OP(=O)(O)OP(=O)([O-])OP(=O)(O)OC[C@H]3O[C@@H]([n+]4cn(Cc5ccccc5)c5c(=O)[nH]c(N)nc54)[C@H](O)[C@@H]3O)[C@@H](O)[C@H]2O)c(=O)[nH]1 [bn^7GppppG] | – | – | no increase in cap-binding affinity to eIF4E1a was observed | – | – |
| COC1C(COP(=O)([O-])OP(=O)(O)OP(=O)(O)OCC2OC(n3cnc4c(=O)[nH]c(N)nc43)C(O)C2O)OC(n2c[n+](C)c3c(=O)[nH]c(N)nc32)C1O (stereo not shown) [m^7,3′OGpppG] | – | – | – | higher inhibitory potency and translational efficiency | – |
| Cn1c[n+]([C@@H]2O[C@H](COP(=O)(O)O)[C@@H](O)[C@H]2O)c2nc(N)[nH]c(=O)c21 [m^7GMP] | 382 | 7.5 | – | – | Kas + glycerol XeIF4E1a (XeIF4E1a; 10% glycerol): 0.256 ± 0.018 μM^− 1; Kas − glycerol XeIF4E1a (XeIF4E1a; buffer without glycerol): 0.567 ± 0.012 μM^− 1; Kas − glycerol heIF4E1b (heIF4E1b): 0.628 ± 0.016 μM^− 1 |
